Test results taken from US9676715B2, “Bis-indolic derivatives, a process for preparing the same and their uses as a drug” (UNIVERSITE JOSEPH FOURIER, priority 2011, dated 2017).
≈ marks a conversion by molar mass, not a printed value.

Tests used:
[1] = system: Staphylococcus simulans (CHUG-Ssim1); assay: MIC, Staphylococcus panel (9.2); assay type: cell-based; conditions: S. simulans CHUG-Ssim1, 4% DMSO, 18 h
Method: (§1) The microdilution method recommended by the Clinical and Laboratory Standard Institute [M07-A9, Vol. 32, N° 2] was used. The activity of bis-indolic compounds 3f and 4 was tested against 35 Staphylococcus bacterial strains corresponding to 12 different species,
(§2) Bacterial inocula were prepared in Mueller Hinton broth (MH2, BioMérieux, Marcy L'Etoile, France). They were dispensed in 96 well microtiter plates (5×10^5 CFU/ml of final inoculum, 192 μL per well). Indolic compounds diluted in pure DMSO (8 μL per well, concentrated 25 times) were added to the wells as to obtain two-fold serial concentrations (0.5-32 mg/L of final concentrations). The final concentration of DMSO was 4% in each well.
(§3) To avoid cross-contaminations in microtiter plates, one row was left blank between each strain tested. Microplates were incubated for 18 h at 37° C. in ambient air. Then MICs were read visually and, in case of visual reading difficulties, confirmed using a spectrophotometer at a wavelength of 630 nm (BioTek® EL808 Absorbance Microplate Reader). MICs corresponded to the minimum bis-indolic compound concentration that allowed complete visual growth inhibition of bacteria. Drug-free cultures served as growth controls.
(§4) Coagulase-negative Staphylococcus strains included three reference strains purchased from CRBIP: a methicillin-susceptible S. epidermidis strain (ATCC 12228), a methicillin-resistant S. epidermidis strain (ATCC 49461), and a methicillin-susceptible S. sciuri strain (ATCC 29061). We also used clinical strains belonging to the following coagulase-negative Staphylococcus species: S. auricularis (two strains), S. warneri (five strains), S. capitis (five strains), S. haemolyticus (four strains), S. hominis (seven strains), S. cohnii (two strains), and S. saprophyticus, S. caprae and S. simulans (one strain each). Identification of the clinical strains was obtained using VITEK® 2 System (Biomérieux). The specified strain numbers correspond to an internal number of the bacterial strain collection of our laboratory.

[2] = system: Staphylococcus hominis (CHUG-Shom4); assay: MIC, Staphylococcus panel (9.2); assay type: cell-based; conditions: S. hominis CHUG-Shom4, 4% DMSO, 18 h
Method: as §1, §2, §3, §4

[3] = system: Staphylococcus auricularis (CHUG-Saur3); assay: MIC, Staphylococcus panel (9.2); assay type: cell-based; conditions: S. auricularis CHUG-Saur3, 4% DMSO, 18 h
Method: as §1, §2, §3, §4

[4] = system: Staphylococcus warneri (CHUG-Swar6); assay: MIC, Staphylococcus panel (9.2); assay type: cell-based; conditions: S. warneri CHUG-Swar6, 4% DMSO, 18 h
Method: as §1, §2, §3, §4

[5] = system: Staphylococcus hominis (CHUG-Shom3); assay: MIC, Staphylococcus panel (9.2); assay type: cell-based; conditions: S. hominis CHUG-Shom3, 4% DMSO, 18 h
Method: as §1, §2, §3, §4

[6] = system: Staphylococcus haemolyticus (CHUG-Shae4); assay: MIC, Staphylococcus panel (9.2); assay type: cell-based; conditions: S. haemolyticus CHUG-Shae4, 4% DMSO, 18 h
Method: as §1, §2, §3, §4

[7] = system: Staphylococcus warneri (CHUG-Swar4); assay: MIC, Staphylococcus panel (9.2); assay type: cell-based; conditions: S. warneri CHUG-Swar4, 4% DMSO, 18 h
Method: as §1, §2, §3, §4

[8] = system: Staphylococcus hominis (CHUG-Shom5); assay: MIC, Staphylococcus panel (9.2); assay type: cell-based; conditions: S. hominis CHUG-Shom5, 4% DMSO, 18 h
Method: as §1, §2, §3, §4

[9] = system: Staphylococcus warneri (CHUG-Swar7); assay: MIC, Staphylococcus panel (9.2); assay type: cell-based; conditions: S. warneri CHUG-Swar7, 4% DMSO, 18 h
Method: as §1, §2, §3, §4

[10] = system: Staphylococcus capitis (CHUG-Scap7); assay: MIC, Staphylococcus panel (9.2); assay type: cell-based; conditions: S. capitis CHUG-Scap7, 4% DMSO, 18 h
Method: as §1, §2, §3, §4

[11] = system: Staphylococcus hominis (CHUG-Shom7); assay: MIC, Staphylococcus panel (9.2); assay type: cell-based; conditions: S. hominis CHUG-Shom7, 4% DMSO, 18 h
Method: as §1, §2, §3, §4

[12] = system: Staphylococcus cohnii (CHUG-Scoh1) (MRSA); assay: MIC, Staphylococcus panel (9.2); assay type: cell-based; conditions: S. cohnii CHUG-Scoh1 (MRSA), 4% DMSO, 18 h
Method: as §1, §2, §3, §4

[13] = system: Staphylococcus hominis (CHUG-Shom8); assay: MIC, Staphylococcus panel (9.2); assay type: cell-based; conditions: S. hominis CHUG-Shom8, 4% DMSO, 18 h
Method: as §1, §2, §3, §4

[14] = system: Staphylococcus haemolyticus (CHUG-Shae6); assay: MIC, Staphylococcus panel (9.2); assay type: cell-based; conditions: S. haemolyticus CHUG-Shae6, 4% DMSO, 18 h
Method: as §1, §2, §3, §4

[15] = system: Staphylococcus hominis (CHUG-Shom6); assay: MIC, Staphylococcus panel (9.2); assay type: cell-based; conditions: S. hominis CHUG-Shom6, 4% DMSO, 18 h
Method: as §1, §2, §3, §4

[16] = system: Staphylococcus caprae (CHUG-Scapra1); assay: MIC, Staphylococcus panel (9.2); assay type: cell-based; conditions: S. caprae CHUG-Scapra1, 4% DMSO, 18 h
Method: as §1, §2, §3, §4

CC(C)(C)OC(=O)NCC(NC(=O)c1c[nH]c2ccc(Br)cc12)c1c[nH]c2ccc(Br)cc12 (centres unmarked) [Compound 3f, tert-Butyl(2-(5-bromo-1H-indol-3-yl)-2-(5-bromo-1H-indolyl-3-carboxamido)ethyl)carbamate]
MIC [1]: 16 µg/mL (≈ 27.8 µM)
MIC [2]: 8 µg/mL (≈ 13.9 µM)
MIC [3]: 8 µg/mL (≈ 13.9 µM)
MIC [4]: 8 µg/mL (≈ 13.9 µM)
MIC [5]: 16 µg/mL (≈ 27.8 µM)
MIC [6]: 16 µg/mL (≈ 27.8 µM)
MIC [7]: 8 µg/mL (≈ 13.9 µM)
MIC [8]: 8 µg/mL (≈ 13.9 µM)
MIC [9]: 8 µg/mL (≈ 13.9 µM)
MIC [10]: 16 µg/mL (≈ 27.8 µM)
MIC [11]: 8 µg/mL (≈ 13.9 µM)
MIC [12]: 16 µg/mL (≈ 27.8 µM)
MIC [13]: 8 µg/mL (≈ 13.9 µM)
MIC [14]: 16 µg/mL (≈ 27.8 µM)
MIC [15]: 8 µg/mL (≈ 13.9 µM)
MIC [16]: 8 µg/mL (≈ 13.9 µM)

CC(NC(=O)c1c[nH]c2ccc(Br)cc12)c1c[nH]c2ccc(Br)cc12 (centres unmarked) [Compound 4, 5-Bromo-N-(1-(5-bromo-1H-indol-3-yl)ethyl)-1H-indole-3-carboxamide]
melting point: 144 °C
